Experimental data as given in the NIST ThermoML archive (doi:10.1021/acs.jced.5b00474).
“And” between values parts separate entries of the source, which are not always exact repeats. Equal entries are not always repeated.

Columns and labels:
[1] = xn = mol fraction of the nth substance listed; conditions: 101 kPa, Liquid; for speed of sound: Frequency=3 MHz, Sing-around technique in a fixed-path interferometer; for mass density: Vibrating tube method
[2] = 101 kPa; for speed of sound: Frequency=3 MHz, Sing-around technique in a fixed-path interferometer; for mass density: Vibrating tube method

ClC(Cl)Cl [trichloromethane] + O=C1CCCN1
[1], x2 = 0
Conditions | mass density [kg/m3] | speed of sound [m/s]
293.15 K | 1487.52 | 1001.5
295.15 K | 1483.74 | –
297.15 K | 1479.93 | –
298.15 K | 1478.02 | 984.65
303.15 K | 1468.47 | 967.76
308.16 K | 1458.85 | 950.87

CN1CCCC1=O [N-methylpyrrolidone]
[2], Liquid
Conditions | mass density | speed of sound
293.15 K | 1032.25 kg/m3 and 1032.51 kg/m3 | 1564.7 m/s
298.14 K | 1028.07 kg/m3 | 1545.5 m/s
298.15 K | 1027.79 kg/m3 | 1544.6 m/s
303.14 K | 1023.61 kg/m3 | 1526.1 m/s
303.15 K | 1023.33 kg/m3 | 1525.3 m/s
308.15 K | 1019.15 kg/m3 and 1018.87 kg/m3 | 1506 m/s and 1506.9 m/s
313.15 K | 1014.41 kg/m3 | 1486.8 m/s
318.15 K | 1009.95 kg/m3 | 1467.8 m/s
323.16 K | 1005.48 kg/m3 | 1448.9 m/s

CN1CCCC1=O [N-methylpyrrolidone] + ClC(Cl)Cl
[1], x1 = 1
Conditions | mass density [kg/m3] | speed of sound [m/s]
293.15 K | 1032.51 | 1564.7
298.14 K | 1028.07 | 1545.5
303.14 K | 1023.61 | 1526.1
308.15 K | 1019.15 | 1506.9

ClC(Cl)Cl [trichloromethane]
[2], Liquid
Conditions | mass density | speed of sound
293.15 K | 1487.52 kg/m3 and 1488.55 kg/m3 | 1001.5 m/s and 1000.9 m/s
295.15 K | 1483.74 kg/m3 | –
297.15 K | 1479.93 kg/m3 | –
298.15 K | 1478.02 kg/m3 and 1479.07 kg/m3 | 984.65 m/s and 984.33 m/s
303.15 K | 1468.47 kg/m3 | 967.76 m/s
303.16 K | 1469.52 kg/m3 | 967.53 m/s
308.15 K | 1459.91 kg/m3 | 950.62 m/s
308.16 K | 1458.85 kg/m3 | 950.87 m/s

CC#N [acetonitrile]
[2], Liquid
Conditions | mass density | speed of sound
293.15 K | 781.989 kg/m3 | –
298.15 K | 776.609 kg/m3 and 776.616 kg/m3 | 1278.9 m/s and 1278.6 m/s
303.15 K | 771.183 kg/m3 and 771.178 kg/m3 | 1259 m/s and 1258.4 m/s
308.15 K | 765.722 kg/m3 and 765.719 kg/m3 | 1239.1 m/s and 1238.3 m/s
313.15 K | 760.223 kg/m3 and 760.231 kg/m3 | 1219.3 m/s and 1218.2 m/s
318.15 K | 754.709 kg/m3 | 1199.5 m/s
318.16 K | 754.702 kg/m3 | 1198.1 m/s
323.16 K | 749.144 kg/m3 and 749.15 kg/m3 | 1178 m/s and 1179.6 m/s

O=C1CCCN1 [2-pyrrolidinone]
[2], Metastable liquid
Conditions | mass density [kg/m3] | speed of sound [m/s]
293.15 K | 1111.44 | 1649.3
298.15 K | 1107.35 | 1632.9
301.15 K | 1104.88 | –
303.15 K | 1103.26 | 1616.7
308.15 K | 1099.17 | 1600.5
313.15 K | 1095.08 | 1584.5
318.16 K | 1091 | 1568.6
323.16 K | 1086.92 | 1552.8

CC#N [acetonitrile] + O=C1CCCN1
[1], x2 = 0
Conditions | mass density [kg/m3] | speed of sound [m/s]
298.15 K | 776.609 | 1278.9
303.15 K | 771.183 | 1259
308.15 K | 765.722 | 1239.1
313.15 K | 760.231 | 1219.3
318.15 K | 754.709 | 1199.5
323.16 K | 749.15 | 1179.6

CC#N [acetonitrile] + CN1CCCC1=O
[1], x2 = 0
Conditions | mass density [kg/m3] | speed of sound [m/s]
293.15 K | 781.989 | –
298.15 K | 776.616 | 1278.6
303.15 K | 771.178 | 1258.4
308.15 K | 765.719 | 1238.3
313.15 K | 760.223 | 1218.2
318.16 K | 754.702 | 1198.1
323.16 K | 749.144 | 1178
